Results from ChEMBL document CHEMBL1128095, “3,4-diarylthiophenes are selective COX-2 inhibitors” (Bioorg Med Chem Lett, 1995).

What was measured:
[1] = target: Prostaglandin G/H synthase 1 (Homo sapiens, UniProt P23219); test: Inhibitory activity against human recombinant Prostaglandin G/H synthase 1
[2] = target: T1, Prostaglandin G/H synthase 2 (Homo sapiens, UniProt P35354)
T1 sequence (P35354 whole entry): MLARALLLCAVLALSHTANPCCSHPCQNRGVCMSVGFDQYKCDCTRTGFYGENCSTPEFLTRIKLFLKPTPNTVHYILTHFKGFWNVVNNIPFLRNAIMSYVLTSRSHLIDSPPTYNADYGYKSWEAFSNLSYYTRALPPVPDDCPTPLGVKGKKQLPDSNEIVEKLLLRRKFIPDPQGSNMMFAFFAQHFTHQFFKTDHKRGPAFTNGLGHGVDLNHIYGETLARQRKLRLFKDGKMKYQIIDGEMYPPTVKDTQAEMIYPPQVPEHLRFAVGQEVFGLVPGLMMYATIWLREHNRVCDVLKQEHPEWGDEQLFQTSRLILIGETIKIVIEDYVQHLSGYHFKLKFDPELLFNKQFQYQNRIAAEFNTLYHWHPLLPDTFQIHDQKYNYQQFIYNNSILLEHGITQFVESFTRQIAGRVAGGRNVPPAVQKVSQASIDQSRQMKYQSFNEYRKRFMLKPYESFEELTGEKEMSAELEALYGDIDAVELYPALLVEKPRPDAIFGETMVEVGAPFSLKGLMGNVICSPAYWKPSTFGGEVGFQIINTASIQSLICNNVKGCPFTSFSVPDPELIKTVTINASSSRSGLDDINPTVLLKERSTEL
Description: Inhibitory activity against human recombinant Prostaglandin G/H synthase 2

Rattus norvegicus = test: Compound was tested for its ability to inhibit carrageenan rat foot edema at 10 mg/kg dose; type: functional

Chain of Prostaglandin G/H synthase 1 (P23219 whole entry): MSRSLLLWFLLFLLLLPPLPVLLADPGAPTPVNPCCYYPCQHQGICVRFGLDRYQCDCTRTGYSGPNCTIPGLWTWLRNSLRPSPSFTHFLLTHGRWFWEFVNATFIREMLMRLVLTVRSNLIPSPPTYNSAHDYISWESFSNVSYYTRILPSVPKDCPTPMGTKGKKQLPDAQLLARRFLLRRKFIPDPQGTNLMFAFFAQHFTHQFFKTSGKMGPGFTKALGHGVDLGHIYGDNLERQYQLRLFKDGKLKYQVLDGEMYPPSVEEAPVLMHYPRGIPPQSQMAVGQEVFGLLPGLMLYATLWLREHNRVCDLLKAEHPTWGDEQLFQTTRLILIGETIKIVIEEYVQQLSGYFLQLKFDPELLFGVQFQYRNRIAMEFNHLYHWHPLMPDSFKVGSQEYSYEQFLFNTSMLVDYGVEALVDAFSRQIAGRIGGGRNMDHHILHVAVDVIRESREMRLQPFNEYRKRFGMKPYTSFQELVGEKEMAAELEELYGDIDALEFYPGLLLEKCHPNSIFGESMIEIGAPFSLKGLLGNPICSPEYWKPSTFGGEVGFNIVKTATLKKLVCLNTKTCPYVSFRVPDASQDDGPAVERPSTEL

| Structure (SMILES) | IC50 [1] [µM] | IC50 [2] [µM] | inhibition in vivo at 10 mg/kg (Rattus norvegicus) [%] |
| --- | --- | --- | --- |
| COc1ccc(-c2cscc2-c2ccc(S(C)(=O)=O)cc2)cc1F | > 100 | 0.03 | – |
| CS(=O)(=O)c1ccc(-c2c(Br)sc(Br)c2-c2ccc(F)cc2)cc1 | > 1000 | 0.7 | – |
| CS(=O)(=O)c1ccc(-c2csc(Br)c2-c2ccc(F)cc2)cc1 | 5.2 | – | 30 |
| CS(=O)(=O)c1ccc(-c2c(-c3ccc(F)cc3)csc2Br)cc1 | > 100 | > 100 | – |
| COc1ccc(-c2cscc2-c2ccc(S(C)(=O)=O)cc2)cc1 | 0.9 | 0.05 | – |
| CS(=O)(=O)c1ccc(-c2cc(Br)sc2-c2ccc(F)cc2)cc1 [DUP-697] | – | – | 57 |

Now from value to molecule, other results behind:

| IC50 [1] [µM] | IC50 [2] [µM] | Structure (SMILES) | inhibition in vivo at 10 mg/kg (Rattus norvegicus) [%] |
| --- | --- | --- | --- |
| 1.8 | 0.008 | NS(=O)(=O)c1ccc(-c2cscc2-c2ccc(F)cc2)cc1 | 46.5 |
| > 1000 | 0.08 | CS(=O)(=O)c1ccc(-c2cscc2-c2ccc(F)cc2)cc1 | 33 |
| 10 | 0.009 | COc1ccc(-c2cscc2-c2ccc(S(N)(=O)=O)cc2)cc1F | – |
